Test results from ChEMBL document CHEMBL2021760, “4-(1-Phenyl-1H-pyrazol-4-yl)quinolines as novel, selective and brain penetrant metabotropic glutamate receptor 4 positive allosteric modulators” (Bioorg Med Chem Lett, 2012).
Converted amounts (≈) assume the structure as drawn. One block for each compound: values may come before it. The source made the active and inactive calls. No cut-off for these calls is given here.

What was measured:
[1] = biological target: T1, Metabotropic glutamate receptor 4 (Homo sapiens, UniProt Q14833); assay: Positive allosteric modulation of human mGlu4 receptor expressed in BHK cells assessed as potentiation of glutamate-induced calcium mobilization by FLIPR analysis; format: functional, cell-based
T1 sequence (Q14833 whole entry): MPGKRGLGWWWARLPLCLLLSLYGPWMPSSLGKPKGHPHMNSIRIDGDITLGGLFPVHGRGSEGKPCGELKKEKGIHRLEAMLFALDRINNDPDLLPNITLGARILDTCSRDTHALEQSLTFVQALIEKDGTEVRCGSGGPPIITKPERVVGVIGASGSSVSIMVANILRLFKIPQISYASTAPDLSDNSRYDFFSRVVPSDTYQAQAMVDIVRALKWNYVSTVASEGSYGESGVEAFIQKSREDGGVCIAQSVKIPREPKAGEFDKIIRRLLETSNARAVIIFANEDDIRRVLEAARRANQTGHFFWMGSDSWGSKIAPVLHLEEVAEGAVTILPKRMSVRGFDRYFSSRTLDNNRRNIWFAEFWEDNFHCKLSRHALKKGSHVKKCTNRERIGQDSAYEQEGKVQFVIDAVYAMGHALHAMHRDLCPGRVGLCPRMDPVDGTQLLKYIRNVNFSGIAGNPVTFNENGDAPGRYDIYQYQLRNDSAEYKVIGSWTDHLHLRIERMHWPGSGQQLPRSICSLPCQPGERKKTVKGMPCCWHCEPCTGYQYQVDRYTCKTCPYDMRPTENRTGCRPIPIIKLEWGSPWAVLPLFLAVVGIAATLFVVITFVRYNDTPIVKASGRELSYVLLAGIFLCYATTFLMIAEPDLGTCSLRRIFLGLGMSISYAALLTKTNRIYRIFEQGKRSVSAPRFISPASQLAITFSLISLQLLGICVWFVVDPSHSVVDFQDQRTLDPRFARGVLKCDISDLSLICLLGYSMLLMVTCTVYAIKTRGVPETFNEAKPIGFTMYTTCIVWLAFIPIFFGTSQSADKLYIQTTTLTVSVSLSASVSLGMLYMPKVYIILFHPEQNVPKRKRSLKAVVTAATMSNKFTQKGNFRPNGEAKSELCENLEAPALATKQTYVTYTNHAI

[2] = biological target: T1, Metabotropic glutamate receptor 4; assay: Positive allosteric modulation of human mGlu4 receptor expressed in BHK cells assessed as potentiation of glutamate-induced calcium mobilization by FLIPR analysis relative to PHCCC; format: functional, cell-based
[3] = biological target: T1, Metabotropic glutamate receptor 4; assay: Positive allosteric modulation of human mGlu4 receptor expressed in BHK cells assessed as fold shift in calcium mobilization by FLIPR analysis relative to glutamate; format: functional, cell-based
[4] = biological target: Metabotropic glutamate receptor 7 (Homo sapiens) (UniProt Q14831); assay: Positive allosteric modulation of mGlu7 receptor at 10 uM
[5] = Kinetic solubility of the compound at pH 7.4; format: physicochemical; conditions: buffer, read-out: Kinetic_solubility
[6] = biological target: Metabotropic glutamate receptor 6 (Homo sapiens) (UniProt O15303); assay: Positive allosteric modulation of mGlu6 receptor at 10 uM
[7] = biological target: Metabotropic glutamate receptor 8 (Homo sapiens) (UniProt O00222); assay: Negative allosteric modulation of mGlu8 receptor at 10 uM
Metabotropic glutamate receptor 8 (Homo sapiens), sequence (O00222 whole entry): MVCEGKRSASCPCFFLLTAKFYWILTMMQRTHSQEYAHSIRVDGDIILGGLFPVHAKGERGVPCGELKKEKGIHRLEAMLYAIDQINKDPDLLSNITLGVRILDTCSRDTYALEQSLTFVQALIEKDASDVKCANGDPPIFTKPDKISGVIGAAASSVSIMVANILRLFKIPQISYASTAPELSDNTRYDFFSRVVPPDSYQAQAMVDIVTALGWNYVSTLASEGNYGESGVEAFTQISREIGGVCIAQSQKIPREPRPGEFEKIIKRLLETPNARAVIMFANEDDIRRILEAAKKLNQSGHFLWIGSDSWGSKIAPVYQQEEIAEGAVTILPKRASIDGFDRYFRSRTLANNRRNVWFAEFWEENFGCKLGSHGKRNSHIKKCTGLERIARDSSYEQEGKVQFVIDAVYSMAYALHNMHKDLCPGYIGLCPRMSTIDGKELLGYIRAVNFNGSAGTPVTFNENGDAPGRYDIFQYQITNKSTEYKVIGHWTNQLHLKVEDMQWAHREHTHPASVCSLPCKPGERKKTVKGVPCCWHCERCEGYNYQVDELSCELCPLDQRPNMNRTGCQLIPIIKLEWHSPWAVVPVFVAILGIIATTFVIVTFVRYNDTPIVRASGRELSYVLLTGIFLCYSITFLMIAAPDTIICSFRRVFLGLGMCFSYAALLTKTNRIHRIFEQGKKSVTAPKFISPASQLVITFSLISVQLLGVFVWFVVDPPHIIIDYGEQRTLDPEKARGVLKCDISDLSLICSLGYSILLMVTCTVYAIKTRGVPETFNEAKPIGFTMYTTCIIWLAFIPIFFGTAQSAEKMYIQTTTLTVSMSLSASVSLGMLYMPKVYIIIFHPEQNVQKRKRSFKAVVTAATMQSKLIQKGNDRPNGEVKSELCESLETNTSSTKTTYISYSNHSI

[8] = biological target: Metabotropic glutamate receptor 8 (Homo sapiens) (UniProt O00222); assay: Agonist activity at mGlu8 receptor at 10 uM; format: functional
[9] = biological target: Metabotropic glutamate receptor 5 (Homo sapiens) (UniProt P41594); assay: Positive allosteric modulation of mGlu5 receptor at 10 uM
Metabotropic glutamate receptor 5 (Homo sapiens), sequence (P41594 21-1212 limits assumed): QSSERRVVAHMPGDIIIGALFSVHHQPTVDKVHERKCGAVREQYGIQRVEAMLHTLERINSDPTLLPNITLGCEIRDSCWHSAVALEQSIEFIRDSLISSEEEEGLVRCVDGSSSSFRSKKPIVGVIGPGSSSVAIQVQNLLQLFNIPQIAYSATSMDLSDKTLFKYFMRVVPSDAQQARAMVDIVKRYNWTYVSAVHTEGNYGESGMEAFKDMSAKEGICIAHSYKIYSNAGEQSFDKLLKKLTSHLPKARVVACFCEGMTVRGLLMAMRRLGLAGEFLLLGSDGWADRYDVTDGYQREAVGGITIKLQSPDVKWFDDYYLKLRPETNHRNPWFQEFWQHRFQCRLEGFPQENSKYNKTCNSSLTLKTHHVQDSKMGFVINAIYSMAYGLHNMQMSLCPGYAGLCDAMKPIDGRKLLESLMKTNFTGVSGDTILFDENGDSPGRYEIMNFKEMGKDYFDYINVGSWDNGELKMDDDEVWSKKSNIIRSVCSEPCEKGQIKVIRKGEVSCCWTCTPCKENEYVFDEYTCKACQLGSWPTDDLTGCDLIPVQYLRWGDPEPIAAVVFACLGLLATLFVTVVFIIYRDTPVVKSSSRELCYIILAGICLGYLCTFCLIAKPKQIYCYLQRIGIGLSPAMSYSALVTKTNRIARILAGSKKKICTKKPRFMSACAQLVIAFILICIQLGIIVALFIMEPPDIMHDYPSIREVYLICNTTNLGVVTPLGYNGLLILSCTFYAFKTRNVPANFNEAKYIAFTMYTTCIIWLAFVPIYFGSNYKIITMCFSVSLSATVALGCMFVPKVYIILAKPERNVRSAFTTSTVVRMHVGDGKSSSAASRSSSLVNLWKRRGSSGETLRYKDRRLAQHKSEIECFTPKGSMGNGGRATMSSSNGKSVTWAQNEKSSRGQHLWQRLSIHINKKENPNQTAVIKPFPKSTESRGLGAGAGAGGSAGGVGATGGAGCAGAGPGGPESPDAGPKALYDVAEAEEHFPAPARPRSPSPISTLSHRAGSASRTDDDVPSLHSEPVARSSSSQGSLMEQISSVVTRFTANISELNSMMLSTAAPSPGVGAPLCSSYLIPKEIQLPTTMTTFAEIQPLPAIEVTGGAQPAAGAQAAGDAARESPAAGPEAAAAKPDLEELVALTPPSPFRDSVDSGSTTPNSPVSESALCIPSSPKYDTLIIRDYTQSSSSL

[10] = Inhibition of benzodiazepine receptor
CYP3A4 = CYP3A4 (Homo sapiens, UniProt P08684); assay: Inhibition of CYP3A4 at 5 uM; format: ADME
[11] = biological target: T2, Melatonin receptor type 1A (Homo sapiens, UniProt P48039); assay: Agonist activity at MT1; format: functional
[12] = biological target: 5-hydroxytryptamine receptor 2B (Homo sapiens, UniProt P41595); assay: Inhibition of 5HT2B
[13] = Kinetic solubility of the compound at pH 4.0; format: physicochemical; conditions: buffer, read-out: Kinetic_solubility
[14] = biological target: Metabotropic glutamate receptor 3 (Homo sapiens) (UniProt Q14832); assay: Negative allosteric modulation of mGlu3 receptor at 10 uM
Metabotropic glutamate receptor 3 (Homo sapiens), sequence (Q14832 23-879 limits assumed): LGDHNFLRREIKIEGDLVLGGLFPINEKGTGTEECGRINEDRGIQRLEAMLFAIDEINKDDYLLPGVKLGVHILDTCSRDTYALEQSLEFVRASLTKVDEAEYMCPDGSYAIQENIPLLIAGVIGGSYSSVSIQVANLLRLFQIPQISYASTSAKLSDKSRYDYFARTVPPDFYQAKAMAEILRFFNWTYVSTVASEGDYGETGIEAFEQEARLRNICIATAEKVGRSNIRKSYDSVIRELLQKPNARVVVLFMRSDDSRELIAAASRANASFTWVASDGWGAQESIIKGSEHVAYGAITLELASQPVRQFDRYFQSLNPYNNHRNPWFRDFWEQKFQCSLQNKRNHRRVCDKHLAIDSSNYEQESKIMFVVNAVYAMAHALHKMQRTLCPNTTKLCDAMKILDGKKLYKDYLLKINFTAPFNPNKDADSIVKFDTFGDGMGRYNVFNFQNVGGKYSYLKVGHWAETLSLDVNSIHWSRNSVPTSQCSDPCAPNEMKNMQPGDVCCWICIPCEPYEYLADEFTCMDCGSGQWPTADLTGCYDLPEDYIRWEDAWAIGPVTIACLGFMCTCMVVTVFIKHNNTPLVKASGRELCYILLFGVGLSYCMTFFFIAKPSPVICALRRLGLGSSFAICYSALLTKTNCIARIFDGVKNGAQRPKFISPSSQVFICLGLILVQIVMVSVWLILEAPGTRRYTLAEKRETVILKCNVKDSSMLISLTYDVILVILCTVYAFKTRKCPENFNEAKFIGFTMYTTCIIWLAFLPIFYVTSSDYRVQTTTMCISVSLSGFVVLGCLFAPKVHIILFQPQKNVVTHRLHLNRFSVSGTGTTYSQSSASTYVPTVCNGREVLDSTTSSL

[15] = Lipophilicity, log D of compound at pH 7.4; format: physicochemical; conditions: buffer
[16] = biological target: Metabotropic glutamate receptor 5 (Homo sapiens) (UniProt P41594); assay: Agonist activity at mGlu5 receptor at 10 uM; format: functional
CYP2C9 = CYP2C9 (Homo sapiens, UniProt P11712); assay: Inhibition of CYP2C9 at 5 uM; format: ADME
Brain [17] = assay: Drug uptake in rat brain at 30 mg/kg, sc; format: ADME, organism-based; design: dose 30 mg/kg, route subcutaneous; conditions: in vivo
[18] = Ratio of drug level in brain to plasma in rat at 30 mg/kg, sc; format: ADME, organism-based; design: dose 30 mg/kg, route subcutaneous; conditions: read-out: BPR
[19] = biological target: Metabotropic glutamate receptor 1 (Homo sapiens) (UniProt Q13255); assay: Negative allosteric modulation of mGlu1 receptor at 10 uM
Metabotropic glutamate receptor 1 (Homo sapiens), sequence (Q13255 19-1194 limits assumed): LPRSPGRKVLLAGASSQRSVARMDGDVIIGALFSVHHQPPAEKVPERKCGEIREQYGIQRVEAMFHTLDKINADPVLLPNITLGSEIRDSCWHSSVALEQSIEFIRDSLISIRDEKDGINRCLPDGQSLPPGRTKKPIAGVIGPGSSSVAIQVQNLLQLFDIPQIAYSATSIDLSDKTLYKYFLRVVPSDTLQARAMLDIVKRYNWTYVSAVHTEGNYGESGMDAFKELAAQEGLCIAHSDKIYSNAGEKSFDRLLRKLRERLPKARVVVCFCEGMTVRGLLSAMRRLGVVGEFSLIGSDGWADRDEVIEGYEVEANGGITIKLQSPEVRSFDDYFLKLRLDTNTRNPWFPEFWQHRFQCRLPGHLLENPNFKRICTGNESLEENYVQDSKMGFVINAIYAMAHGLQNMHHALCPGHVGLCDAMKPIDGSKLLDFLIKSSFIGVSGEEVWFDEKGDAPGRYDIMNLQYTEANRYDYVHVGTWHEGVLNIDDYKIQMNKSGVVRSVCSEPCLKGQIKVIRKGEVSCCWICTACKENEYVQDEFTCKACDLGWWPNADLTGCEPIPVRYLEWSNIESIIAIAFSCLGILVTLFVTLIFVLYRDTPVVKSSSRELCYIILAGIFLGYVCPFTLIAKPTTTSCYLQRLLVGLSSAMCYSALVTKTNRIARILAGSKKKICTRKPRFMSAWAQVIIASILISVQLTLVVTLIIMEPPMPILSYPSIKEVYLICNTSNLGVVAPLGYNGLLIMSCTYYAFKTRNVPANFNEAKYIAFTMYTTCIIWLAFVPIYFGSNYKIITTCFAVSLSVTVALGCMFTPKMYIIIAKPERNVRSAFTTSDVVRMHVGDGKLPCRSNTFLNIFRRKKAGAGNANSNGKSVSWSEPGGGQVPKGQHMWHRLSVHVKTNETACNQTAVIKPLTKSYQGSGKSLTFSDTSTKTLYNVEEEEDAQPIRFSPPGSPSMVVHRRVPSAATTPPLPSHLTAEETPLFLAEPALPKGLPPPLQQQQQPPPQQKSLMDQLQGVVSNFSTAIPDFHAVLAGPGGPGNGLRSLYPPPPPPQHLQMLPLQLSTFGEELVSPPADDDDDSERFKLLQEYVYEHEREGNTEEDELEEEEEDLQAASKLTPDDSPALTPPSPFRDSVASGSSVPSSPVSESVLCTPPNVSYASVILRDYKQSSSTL

[20] = biological target: Metabotropic glutamate receptor 7 (Homo sapiens) (UniProt Q14831); assay: Agonist activity at mGlu7 receptor at 10 uM; format: functional
[21] = biological target: Metabotropic glutamate receptor 7 (Homo sapiens) (UniProt Q14831); assay: Negative allosteric modulation of mGlu7 receptor at 10 uM
Plasma [22] = assay: Plasma concentration in rat at 30 mg/kg, sc; format: ADME, organism-based; design: dose 30 mg/kg, route subcutaneous; conditions: in vivo
[23] = biological target: Metabotropic glutamate receptor 5 (Homo sapiens) (UniProt P41594); assay: Negative allosteric modulation of mGlu5 receptor at 10 uM
[24] = biological target: Metabotropic glutamate receptor 2 (Homo sapiens) (UniProt Q14416); assay: Negative allosteric modulation of mGlu2 receptor at 10 uM
[25] = biological target: Metabotropic glutamate receptor 6 (Homo sapiens) (UniProt O15303); assay: Negative allosteric modulation of mGlu6 receptor at 10 uM
[26] = biological target: Metabotropic glutamate receptor 2 (Homo sapiens) (UniProt Q14416); assay: Agonist activity at mGlu2 receptor at 10 uM; format: functional
CYP2B6 = biological target: T3, CYP2B6 (Homo sapiens, UniProt P20813); assay: Inhibition of CYP2B6 at 5 uM; format: ADME
T3 sequence (P20813 whole entry): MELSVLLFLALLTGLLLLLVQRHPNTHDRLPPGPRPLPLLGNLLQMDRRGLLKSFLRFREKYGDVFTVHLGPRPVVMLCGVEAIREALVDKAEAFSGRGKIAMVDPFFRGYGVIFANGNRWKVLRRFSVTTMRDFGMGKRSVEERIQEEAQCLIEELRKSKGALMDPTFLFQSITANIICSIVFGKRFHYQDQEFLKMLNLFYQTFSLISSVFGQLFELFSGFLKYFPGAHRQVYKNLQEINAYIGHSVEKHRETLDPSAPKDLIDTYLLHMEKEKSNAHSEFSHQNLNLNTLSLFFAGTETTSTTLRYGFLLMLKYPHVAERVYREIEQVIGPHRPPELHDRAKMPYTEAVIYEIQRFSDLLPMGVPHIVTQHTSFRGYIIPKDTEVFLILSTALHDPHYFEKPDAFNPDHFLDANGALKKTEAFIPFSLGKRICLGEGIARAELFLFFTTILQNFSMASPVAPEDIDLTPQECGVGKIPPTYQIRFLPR

[27] = biological target: Metabotropic glutamate receptor 3 (Homo sapiens) (UniProt Q14832); assay: Positive allosteric modulation of mGlu3 receptor at 10 uM
Brain [28] = assay: Fraction unbound in rat brain; format: ADME, tissue-based
[29] = biological target: Metabotropic glutamate receptor 3 (Homo sapiens) (UniProt Q14832); assay: Agonist activity at mGlu3 receptor at 10 uM; format: functional
Rattus norvegicus = organism: Rattus norvegicus; assay: Intrinsic clearance in rat; format: ADME, organism-based; conditions: in vivo
Cerebrospinal fluid [30] = assay: Drug uptake in rat CSF at 30 mg/kg, sc; format: ADME, organism-based; design: dose 30 mg/kg, route subcutaneous; conditions: in vivo
[31] = biological target: Metabotropic glutamate receptor 2 (Homo sapiens) (UniProt Q14416); assay: Positive allosteric modulation of mGlu2 receptor at 10 uM
[32] = Plasma protein binding in rat; format: ADME, cell-free; conditions: read-out: PPB (converted)
[33] = biological target: T2, Melatonin receptor type 1A; assay: Agonist activity at MT1 relative to control; format: functional
[34] = biological target: Metabotropic glutamate receptor 1 (Homo sapiens) (UniProt Q13255); assay: Agonist activity at mGlu1 receptor at 10 uM; format: functional
[35] = biological target: Voltage-gated inwardly rectifying potassium channel KCNH2 (Homo sapiens, UniProt Q12809); assay: Inhibition of human ERG by electrophysiology assay
[36] = biological target: Metabotropic glutamate receptor 1 (Homo sapiens) (UniProt Q13255); assay: Positive allosteric modulation of mGlu1 receptor at 10 uM
[37] = biological target: Metabotropic glutamate receptor 6 (Homo sapiens) (UniProt O15303); assay: Agonist activity at mGlu6 receptor at 10 uM; format: functional
[38] = biological target: Metabotropic glutamate receptor 8 (Homo sapiens) (UniProt O00222); assay: Positive allosteric modulation of mGlu8 receptor at 10 uM
CYP2C19 = CYP2C19 (Homo sapiens, UniProt P33261); assay: Inhibition of CYP2C19 at 5 uM; format: ADME
Cerebrospinal fluid [39] = assay: Drug uptake in rat CSF at 10 mg/kg, po; format: ADME, organism-based; design: dose 10 mg/kg, route oral; conditions: in vivo
[40] = Ratio of drug level in brain to plasma in rat at 10 mg/kg, po; format: ADME, organism-based; design: dose 10 mg/kg, route oral; conditions: read-out: BPR
Plasma [41] = assay: Plasma concentration in rat at 10 mg/kg, po; format: ADME, organism-based; design: dose 10 mg/kg, route oral; conditions: in vivo
Brain [42] = assay: Drug uptake in rat brain at 10 mg/kg, po; format: ADME, organism-based; design: dose 10 mg/kg, route oral; conditions: in vivo

- EC50 [1]: 670 nM
- Emax [2]: 130%
SMILES: Cc1c(-c2ccnc3ccccc23)cnn1-c1ccccc1

- EC50 [1]: 220 nM
- Ratio [3]: 12
- Activity [4]: inactive
- solubility kinetic [5]: 21 µM (≈ 5.7 µg/mL)
- Activity [6]: inactive
- Activity [7]: inactive
- Activity [8]: inactive
- Activity [9]: inactive
- IC50 [10]: 3100 nM
- inhibition at 5 µM (CYP3A4): 38%
- EC50 [11]: 920 nM
- IC50 [12]: 1600 nM
- solubility kinetic [13]: 150 µM (≈ 40.7 µg/mL)
- Activity [14]: inactive
- logD [15]: 3.9
- Activity [16]: inactive
- inhibition at 5 µM (CYP2C9): 48%
- Drug uptake (Brain [17]): 5055 ng/g
- Kp [18]: 2.7
- Activity [19]: inactive
- Activity [20]: inactive
- Activity [21]: inactive
- Cp (Plasma [22]): 1886 ng/mL
- Activity [23]: inactive
- Emax [2]: 105%
- Activity [24]: inactive
- Activity [25]: inactive
- Activity [26]: inactive
- inhibition at 5 µM (CYP2B6): 56%
- Activity [27]: inactive
- Fu (Brain [28]): 0.7%
- Activity [29]: inactive
- CL (Rattus norvegicus): 550 mL/min
- Drug uptake (Cerebrospinal fluid [30]): 72 ng/mL
- Activity [31]: inactive
- fraction unbound [32]: 0.004
- Emax [33]: 84%
- Activity [34]: inactive
- Activity [36]: inactive
- Activity [37]: inactive
- Activity [38]: inactive
SMILES: c1ccc(-n2cc(-c3ccnc4ccccc34)cn2)cc1
- IC50 [35]: 2500 nM

- EC50 [1]: > 10000 nM
- Emax [2]: 39%
SMILES: c1ccc(-n2cc(-c3ccncc3)cn2)cc1

- EC50 [1]: 5100 nM
- Emax [2]: 90%
SMILES: Cc1cnccc1-c1cnn(-c2ccccc2)c1

- EC50 [1]: > 10000 nM
- Emax [2]: 4%
SMILES: Oc1ccc2c(-c3cnn(-c4ccccc4)c3)ccnc2c1

- EC50 [1]: 4300 nM
- Emax [2]: 52%
SMILES: c1csc(-n2cc(-c3ccnc4ccccc34)cn2)c1

- EC50 [1]: 2700 nM
- Emax [2]: 47%
SMILES: c1ccc(-n2cc(-c3ccnc4[nH]ccc34)cn2)cc1

- EC50 [1]: 730 nM
- Emax [2]: 120%
SMILES: Fc1ccc2c(-c3cnn(-c4ccccc4)c3)ccnc2c1

- EC50 [1]: 250 nM
- Emax [2]: 88%
SMILES: COCCCOc1ccc2c(-c3cnn(-c4ccccc4)c3)ccnc2c1

- EC50 [1]: 540 nM
- Emax [2]: 93%
SMILES: CCOc1ccc2c(-c3cnn(-c4ccccc4)c3)ccnc2c1

- EC50 [1]: > 10000 nM
- Emax [2]: 11%
SMILES: CN(C)C(=O)COc1ccc2c(-c3cnn(-c4ccccc4)c3)ccnc2c1

- EC50 [1]: 3100 nM
- Emax [2]: 92%
SMILES: Fc1cccc(-n2cc(-c3ccnc4ccccc34)cn2)c1

Further lines, the compound ahead of its results:

SMILES: O=C(COc1ccc2c(-c3cnn(-c4ccccc4)c3)ccnc2c1)N1CCOCC1
- EC50 [1]: > 10000 nM
- Emax [2]: 17%

SMILES: c1ccc(-n2cc(-c3ccnc4cc(OCCCN5CCOCC5)ccc34)cn2)cc1
- EC50 [1]: 2800 nM
- Emax [2]: 64%

SMILES: c1ccc(-n2cc(-c3ccnc4cc(OCCCN5CCCC5)ccc34)cn2)cc1
- EC50 [1]: > 10000 nM
- Emax [2]: 7%

SMILES: c1ccc(-n2cc(-c3ccnc4c3CCC4)cn2)cc1
- EC50 [1]: 2300 nM
- Emax [2]: 65%

SMILES: CCN(CC)C(=O)Oc1ccc2c(-c3cnn(-c4ccccc4)c3)ccnc2c1
- EC50 [1]: 390 nM
- Ratio [3]: 11.2
- solubility kinetic [5]: 1.4 µM (≈ 0.541 µg/mL)
- inhibition at 5 µM (CYP2C19): 83%
- Drug uptake (Cerebrospinal fluid [39]): < 1 ng/mL
- inhibition at 5 µM (CYP3A4): 35%
- Kp [40]: 1.5
- solubility kinetic [13]: 190 µM (≈ 73.4 µg/mL)
- inhibition at 5 µM (CYP2C9): 88%
- Emax [2]: 120%
- inhibition at 5 µM (CYP2B6): 61%
- Fu (Brain [28]): 0.4%
- CL (Rattus norvegicus): 46 mL/min
- fraction unbound [32]: 0.012
- Cp (Plasma [41]): 23 ng/mL
- Drug uptake (Brain [42]): 35 ng/g

SMILES: Cc1nn(-c2ccccc2)c(C)c1-c1ccnc2ccccc12
- EC50 [1]: 840 nM
- Emax [2]: 150%

SMILES: O=C(Oc1ccc2c(-c3cnn(-c4ccccc4)c3)ccnc2c1)N1CCOCC1
- EC50 [1]: 900 nM
- Emax [2]: 84%

SMILES: c1ccc(-n2cc(-c3ccnc4cc(OCCN5CCCC5)ccc34)cn2)cc1
- EC50 [1]: > 10000 nM
- Emax [2]: 9%

SMILES: CC(=O)N1CCN(CCOc2ccc3c(-c4cnn(-c5ccccc5)c4)ccnc3c2)CC1
- EC50 [1]: 690 nM
- Emax [2]: 75%

SMILES: c1ccc(-n2cc(-c3c[nH]c4ccccc34)cn2)cc1
- EC50 [1]: 2500 nM
- Emax [2]: 44%
